Reference: US6358883B1, “Pesticidal and parasiticidal use of 1-aryl-1-(substituted thio, sulfinyl and sulfonyl)-2-nitroethane compounds” (American Cyanamid Company, priority 1998, dated 2002)

Tests used:
Format in all cases: in vivo
[1] = system: Diabrotica undecimpunctata howardi, eggs-southern corn rootworm (SCR-Eggs); assay: Southern corn rootworm eggs (SCR-Eggs) treated diet test; set-up: key: 0 = no effect; 1 = 10-25% kill; 2 = 26-35% kill; 3 = 36-45% kill; 4 = 46-55% kill; 5 = 56-65% kill; 6 = 66-75% kill; 7 = 76-85% kill; 8 = 86-99% kill; 9 = 100% kill; details: mortality after 7 days
Summary of the method: (§1)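 Compounds dissolved at 10,000 ppm in 35% acetone/water, diluted with water, applied to artificial diet in wells and dried. Southern corn rootworm or southern armyworm eggs placed on treated diet under vented covers; mortality counted after 7 days.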

[2] = system: Spodoptera eridania, eggs-southern armyworm (SAW-Eggs); assay: Southern armyworm eggs (SAW-Eggs) treated diet test; set-up: key: 0 = no effect; 1 = 10-25% kill; 2 = 26-35% kill; 3 = 36-45% kill; 4 = 46-55% kill; 5 = 56-65% kill; 6 = 66-75% kill; 7 = 76-85% kill; 8 = 86-99% kill; 9 = 100% kill; details: mortality after 7 days
Summary of the method: as §1

[3] = system: Tetranychus urticae (OP-resistant strain), 2-spotted spider mite (TSM); assay: 2-spotted spider mite (TSM) plant dip test; set-up: key: 0 = no effect; 1 = 10-25% kill; 2 = 26-35% kill; 3 = 36-45% kill; 4 = 46-55% kill; 5 = 56-65% kill; 6 = 66-75% kill; 7 = 76-85% kill; 8 = 86-99% kill; 9 = 100% kill; details: mortality after 2 days
Summary of the method: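 OP-resistant mites (~100 per leaf) were transferred onto Sieva lima bean primary leaves about 2 h before treatment. Infested plants were dipped for 3 s in compound from a 10,000 ppm stock in 35% acetone/water, diluted with water. Mortality was counted after 2 days.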

[4] = system: Aphis gossypii, cotton aphid (CA); assay: Cotton aphid (CA) cotyledon dip test; set-up: key: 0 = no effect; 1 = 10-25% kill; 2 = 26-35% kill; 3 = 36-45% kill; 4 = 46-55% kill; 5 = 56-65% kill; 6 = 66-75% kill; 7 = 76-85% kill; 8 = 86-99% kill; 9 = 100% kill; details: mortality after 5 days
Summary of the method: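 Cotyledon-stage cotton plants infested overnight via a heavily infested leaf, then dipped in test solution (compound in 35% acetone/water, diluted with water) and dried. Mortality counted after 5 days.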

[5] = system: Diabrotica virgifera virgifera Leconte, 2nd instar western corn rootworm (WCR); assay: Western corn rootworm (WCR) soil test; set-up: key: 0 = no effect; 1 = 10-25% kill; 2 = 26-35% kill; 3 = 36-45% kill; 4 = 46-55% kill; 5 = 56-65% kill; 6 = 66-75% kill; 7 = 76-85% kill; 8 = 86-99% kill; 9 = 100% kill
Summary of the method: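 Compound in 35% acetone/water applied to talc at 1.25 mg active ingredient per jar (about 50 kg/ha), solvent evaporated, then mixed with millet seed and moist soil. Ten 2nd-instar larvae per jar; mortality counted after 5 days, missing larvae scored dead.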

[6] = system: C. elegans (Bristol strain); assay: Evaluation of test compounds against C. elegans (motility, 96-well plate); set-up: key: 9=complete kill in 4 hours; 8=complete kill in 24 hours; 7=markedly reduced motility in approximately 95% of worms in 24 hours; 0=normal motility, same as controls; details: motility at 4 and 24 hours
Summary of the method: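 Bristol-strain C. elegans in Na buffer added to wells containing dried compound (applied in 80% acetone) and incubated at 20 °C. Motility of adults and larvae scored subjectively but semi-quantitatively under a dissecting microscope at 4 and 24 h after immersion, plates tapped before reading.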

[7] = system: M. incognita (Root Knot Nematode) larvae; assay: Evaluation of test compounds against M. incognita larvae in microtiter plate wells (movement score); details: larvae scored for movement after 20-24 hours; also: key: A score of '9' indicates inactive worms with a straight, sticklike morphology; A score of '8' indicates inactive worms with a limp, curled or curved morphology; A score of '7' indicates dead/paralyzed worms after 72 hours
Summary of the method: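 Newly emerged M. incognita larvae in S Medium (buffered salt solution), 50-65 worms per well, exposed to test compounds in sealed microtiter wells. Movement scored after 20-24 h incubation; wells with obviously dead/paralyzed larvae scored positive. A score of "7" denotes dead/paralyzed worms after […].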

[8] = system: Spodoptera eridania, 2nd instar larvae, southern armyworm (SAW); assay: Southern armyworm (SAW) leaf dip test; set-up: key: 0 = no effect; 1 = 10-25% kill; 2 = 26-35% kill; 3 = 36-45% kill; 4 = 46-55% kill; 5 = 56-65% kill; 6 = 66-75% kill; 7 = 76-85% kill; 8 = 86-99% kill; 9 = 100% kill
Summary of the method: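 Compound is dissolved at 10,000 ppm in 35% acetone/water, then diluted with water. Lima bean leaves are dipped for 3 seconds, dried and placed with ten 2nd instar larvae on damp filter paper. Mortality, reduced feeding and molting interference are scored at 5 days.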

| Structure (SMILES) | SCR Eggs (1000 ppm) rating [1] | SAW Eggs (300 ppm) rating [2] | TSM (300 ppm) rating [3] | CA (300 ppm) rating [4] | WCR (50 ppm) rating [5] | Rating Against C. elegans (150 ppm) [6] | M. incognita (150 ppm) score [7] | SAW (300 ppm) rating [8] |
| --- | --- | --- | --- | --- | --- | --- | --- | --- |
| COC(=O)CSC(C[N+](=O)[O-])c1cccc(C#N)c1 (racemic) [Example 98] | 0 | 0 | 3 (3 = 36-45% kill) | 0 | 0 | 8 | 0 | 5 (5 = 56-65% kill) |
| CCOC(=O)CSC(C[N+](=O)[O-])c1cccc(C#N)c1 (racemic) [Example 99] | 0 | 0 | 0 | 0 | 0 | 0 | 0 | 0 |
| CCCOC(=O)CSC(C[N+](=O)[O-])c1cccc(C#N)c1 (racemic) [Example 100] | 0 | 0 | 0 | 0 | 0 | 8 | 0 | 0 |
| CCCCOC(=O)CSC(C[N+](=O)[O-])c1cccc(C#N)c1 (racemic) [Example 101] | 0 | 0 | 0 | 0 | 0 | 0 | 9 | 0 |
| CCCOC(=O)CSC(C[N+](=O)[O-])c1ccc(OC)cc1 (racemic) [Example 102] | 0 | 0 | 0 | 0 | 0 | 9 | 9 | 0 |
| CCCOC(=O)CSC(C[N+](=O)[O-])c1cccc(OC)c1 (racemic) [Example 103] | 0 | 0 | 4 (4 = 46-55% kill) | 0 | 0 | 8 | 9 | 0 |
| CCCOC(=O)CSC(C[N+](=O)[O-])c1ccc2c(c1)OCO2 (racemic) [Example 104] | 0 | 0 | 0 | 0 | 0 | 9 | 8 | 0 |
| CCCOC(=O)CSC(C[N+](=O)[O-])c1ccccc1 (racemic) [Example 105] | 0 | 0 | 0 | 0 | 3 (3 = 36-45% kill) | 9 | 0 | 3 (3 = 36-45% kill) |
| O=C(CSC(C[N+](=O)[O-])c1ccc2c(c1)OCO2)OCc1ccccc1 (racemic) [Example 106] | 0 | 0 | 0 | 0 | 0 | 8 | 0 | 0 |
| COc1cccc(C(C[N+](=O)[O-])SCC(=O)OCc2ccccc2)c1 (racemic) [Example 107] | 0 | 0 | 0 | 0 | 0 | 0 | 0 | 0 |
| COc1ccc(C(C[N+](=O)[O-])SCC(=O)OCc2ccccc2)cc1 (racemic) [Example 108] | 0 | 9 (9 = 100% kill) | 0 | 0 | 0 | 8 | 9 | 0 |
| O=C(O)CSC(C[N+](=O)[O-])c1ccc2ccccc2c1 (racemic) [Example 109] | 0 | 0 | 0 | 0 | 0 | 9 | 0 | 0 |
| COC(=O)CSC(C[N+](=O)[O-])c1ccc2ccccc2c1 (racemic) [Example 110] | 0 | 0 | 0 | 0 | 0 | 9 | 0 | 0 |
| CCOC(=O)CSC(C[N+](=O)[O-])c1ccc2ccccc2c1 (racemic) [Example 111] | 0 | 8 (8 = 86-99% kill) | 0 | 0 | 0 | 8 | 0 | 0 |
| CCCOC(=O)CSC(C[N+](=O)[O-])c1ccc2ccccc2c1 (racemic) [Example 112] | 0 | 8 (8 = 86-99% kill) | 0 | 0 | 0 | 9 | 0 | 0 |
| CCCCOC(=O)CSC(C[N+](=O)[O-])c1ccc2ccccc2c1 (racemic) [Example 113] | 0 | 9 (9 = 100% kill) | 0 | 0 | 0 | 9 | 0 | 3 (3 = 36-45% kill) |
| O=C(CSC(C[N+](=O)[O-])c1ccc2ccccc2c1)OCc1ccccc1 (racemic) [Example 114] | 0 | 9 (9 = 100% kill) | 3 (3 = 36-45% kill) | 0 | 0 | 9 | 0 | 0 |
| C=CCSC(C[N+](=O)[O-])c1ccccc1 (stereo not drawn) [Example 2] | 0 | 0 | – | – | – | 0 | 9 | – |
| O=[N+]([O-])CC(SCc1ccccc1)c1ccco1 (stereo not drawn) [Example 203] | 9 (9 = 100% kill) | 9 (9 = 100% kill) | 0 | 0 | 8 (8 = 86-99% kill) | 9 | – | 0 |
